This test relates to KPMM2 cells. Particulars: fixed concentration of anti-human IL-6 receptor antibody; 0.1 or 1 ng/ml IL-6 (FIG. 1 to 6). The procedure: The effects of anti-human IL-6 receptor antibody on sensitivity of KPMM2 cells to chemotherapeutic agents used for treatment of myeloma such as adriamycin (ADR, manufactured by Kyowa Hakko), vincristine (VCR, manufactured by Sigma Chemical Co.), and melphalan (L-PAM, manufactured by Sigma Chemical Co.) were evaluated.
KPMM2 is a multiple myeloma cell line derived from the ascites of a human patient with myeloma (see Japanese Unexamined Patent Publication (Kokai) No. 7-236475). […] The growth activity of the cell was evaluated by incorporation of ^3H-labeled thymidine (manufactured by Amersham) into the cell.
The KPMM2 cells that had been maintained were washed thoroughly with a fresh medium (RPMI1640 medium supplemented with 20% FBS), and then were adjusted to 4×10^5/ml, which was dispensed in 50 μl aliquots in a 96-well flat-bottomed microtiter plate (manufactured by Falcon). Furthermore, a medium containing a recombinant human IL-6 (Asagoe, Y. et al., Bio/Technology (1988) 6, 806-809), anti-human IL-6 receptor antibody hPM-1 (see the above reference example 1 or International Patent Application WO 92-15759), and the above chemotherapeutic agents or a fresh medium as control were added to make 200 μl in each well.
The plate was incubated at 37° C. for 4 days under the humidified condition in the presence of 5% CO2. At four hours before the end of incubation, 10 μl of ^3H-labeled thymidine solution (100 μCi/ml) was added to each well, and then incubated for more 4 hours. At the end of incubation, the cells were collected onto the glass filter (manufactured by Printed Filtermat A, WALLAC) using a harvester (Micro 96 Harvester, manufactured by SKATRON Instruments). The radioactivity incorporated into the cells was measured by a microbeta (1450 MicroBeta, manufactured by WALLAC).
The activity of growth inhibition on KPMM2 was expressed using the effect by a chemotherapeutic agent alone as the control. Using the incorporation of ^3H-labeled thymidine into the cell for each experimental group in which a each concentration of a chemotherapeutic agent was added as 100, the amount of ^3H-labeled thymidine incorporated into the cell in an experimental group in which anti-human IL-6 receptor antibody was simultaneously added was compared as an index.

Consider two compounds from patent US7566453B2, “Methods for treating melanomas” (Chugai Seiyaku Kabushiki Kaisha, priority 1998, dated 2009).

The structures appear in SMILES notation.

In the case of `CC[C@]1(O)C[C@H]2CN(CCc3c([nH]c4ccccc34)[C@@](C(=O)OC)(c3cc4c(cc3OC)N(C=O)[C@H]3[C@@](O)(C(=O)OC)[C@H](OC(C)=O)[C@]5(CC)C=CCN6CC[C@]43[C@@H]65)C2)C1` [vincristine], the “relationship of growth index with the concentration of chemotherapeutic agent” value was “almost constant regardless of their concentration”.

Take `COc1cccc2c1C(=O)c1c(O)c3c(c(O)c1C2=O)C[C@@](O)(C(=O)CO)C[C@@H]3O[C@H]1C[C@H](N)[C@H](O)[C@H](C)O1` [adriamycin]: the “relationship of growth index with the concentration of chemotherapeutic agent” value is “almost constant regardless of their concentration”.
